This is an account of results in US20250066388A1, “1,3,4,7-TETRAHYDRO-2H-PYRROLO[3',2':5,6]PYRIDO[2,3-B][1,4]OXAZEPINE BCL-2 INHIBITORS” (AbbVie Inc., priority 2022, published 2025).

The target in test [1] is Bcl-2 protein (Homo sapiens (Human), UniProt P10415). As to the kind of experiment: TR-FRET binding assay, Bcl-2. To be noted: F-Bak peptide probe, GST-Bcl-2. The procedure: (§1) Determination of the utility of compounds having Formula (I) or Formula (II) as binders to and inhibitors of anti-apoptotic Bcl-2 proteins was performed using the Time Resolved-Fluorescence Resonance Energy Transfer (TR-FRET) Assay. Tb-anti-GST antibody was purchased from Invitrogen (Catalog No. PV4216).
A Bcl-2 human encoding sequence was cloned into a pET41A vector (Novagen). The protein was expressed with E. coli. BL21(DE3)-T1R strain in OETB autoinduction medium at 30° C. for 25 hours. The cell pellets were resuspended in lysis buffer (50 mM Tris, 140 mM NaCl, 1 mM DTT, 10% Glycerol, 2 mM MgCl2, pH 7.3) and lysed with Microfluidizer. The Bcl-2 protein in clarified cell-lysate was purified with affinity chromatography (GST and Ni-NTA). The eluate was loaded onto a Superdex 75 column and further purified with a Q Sepharose column. The protein was purified on a phenyl hydrophobic interaction column and dialyzed in the storage buffer (50 mM Tris, 50 mM NaCl, 2 mM DTT, pH 7.5) and stored at −80° C.
(§2) […] of a protein (Bcl-2 or Bcl-xL)/probe/antibody mixture pre-equilibrated for one hour in assay buffer was added to each well at final concentrations listed in Table 6 below.
(§3) The samples were then mixed on a shaker for 1 minute and equilibrated for an additional 3 hours at room temperature. For each assay plate, a probe/antibody and protein/antibody/probe mixture were included as a negative and a positive control, respectively. Fluorescence was measured on the Envision (Perkin Elmer) using a 340/35 nm excitation filter and 520/525 (F-Bak) and 495/510 nm (Tb-labeled anti-GST antibody) emission filters. Inhibition constants (Ki) were determined using Wang's equation (Wang FEBS Lett. 1995, 360, 111-114). The TR-FRET assay can be performed in the presence of varying concentrations of human serum (HS) to determine apparent half maximal inhibitory concentration (IC50) after HS protein binding.
(§4) Inhibition constants were determined using Wang's equation (Wang FEBS Lett. 1995, 360:111-4).
Background: TR-FRET usually uses a lanthanide donor and a delayed reading to cut background.

Test [2] addresses Bcl-xL protein (Homo sapiens (Human), UniProt Q07817). Description: TR-FRET binding assay, Bcl-xL. The following applies: F-Bak peptide probe. The procedure: as §1
A human Bcl-xL encoding sequence was cloned into a pET41A vector. The protein was expressed with E. coli. BL21(DE3)-T1R strain in OETB autoinduction medium at 30° C. for 25 hours. The cell pellets were resuspended in lysis buffer (50 mM Tris, 140 mM NaCl, 1 mM DTT, 10% Glycerol, 0.1% Triton X-100, pH 7.5) and lysed with Microfluidizer. The Bcl-xL protein in clarified cell-lysate was purified with GST affinity chromatography. The eluate was dialyzed in the storage buffer (1×PBS, 10% Glycerol, 2 mM DTT, 1 mM Sodium Azide, pH 7.4) and stored at −80° C.
as §2, §3, §4

Chain of Bcl-2 protein (P10415 other isoform, or with tags, fused parts or gaps): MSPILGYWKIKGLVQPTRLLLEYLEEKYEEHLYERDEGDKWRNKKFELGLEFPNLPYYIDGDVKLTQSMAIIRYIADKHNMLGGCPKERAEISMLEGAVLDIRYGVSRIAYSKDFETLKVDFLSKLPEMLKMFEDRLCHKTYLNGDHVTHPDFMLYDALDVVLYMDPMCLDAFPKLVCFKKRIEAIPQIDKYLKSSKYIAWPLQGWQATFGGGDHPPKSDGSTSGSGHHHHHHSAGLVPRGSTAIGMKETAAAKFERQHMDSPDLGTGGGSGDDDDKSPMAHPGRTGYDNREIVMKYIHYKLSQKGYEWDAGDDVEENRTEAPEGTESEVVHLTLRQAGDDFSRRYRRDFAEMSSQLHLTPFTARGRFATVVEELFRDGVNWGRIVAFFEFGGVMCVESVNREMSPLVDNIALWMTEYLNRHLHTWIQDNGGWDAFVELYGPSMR
Chain of Bcl-xL protein (Q07817 other isoform, or with tags, fused parts or gaps): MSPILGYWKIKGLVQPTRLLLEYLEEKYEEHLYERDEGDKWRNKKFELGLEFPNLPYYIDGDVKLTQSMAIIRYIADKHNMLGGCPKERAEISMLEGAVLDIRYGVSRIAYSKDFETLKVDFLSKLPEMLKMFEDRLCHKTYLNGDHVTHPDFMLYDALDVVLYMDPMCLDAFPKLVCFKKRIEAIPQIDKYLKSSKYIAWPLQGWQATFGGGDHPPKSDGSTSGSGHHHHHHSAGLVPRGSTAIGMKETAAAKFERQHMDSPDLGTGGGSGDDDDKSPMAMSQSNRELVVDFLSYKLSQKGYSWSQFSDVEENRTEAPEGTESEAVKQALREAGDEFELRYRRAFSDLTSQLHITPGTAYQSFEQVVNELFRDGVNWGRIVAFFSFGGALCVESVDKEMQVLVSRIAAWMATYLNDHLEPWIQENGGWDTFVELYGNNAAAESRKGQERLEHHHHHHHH

Usually Ki stands for a measure of affinity in units of concentration, obtained from inhibition or displacement. Read a high Ki as weaker binding. Turning to `CC1(C)CC(c2ccc(Cl)cc2)=C2CN3CCN(c4ccc(C(=O)NS(=O)(=O)c5ccc(OCC6(F)CCN(C7COC7)CC6)c(Cl)c5)c(N5CCCOc6nc7[nH]ccc7cc65)c4)C[C@H]3COCCCO[C@@H]2C1` [Example 9, N-(3-chloro-4-{[4-fluoro-1-(oxetan-3-yl)piperidin-4-yl]methoxy}benzene-1-sulfonyl)-4-[(4aS,10aR)-14-(4-chlorophenyl)-12,12-dimethyl-1,2,4a,5,8,9,11,12,13,15-decahydro-7H,10aH-pyrazino[2,1-g][1,5,8]benzodioxazacycloundecin-3(4H)-yl]-2-(3,4-dihydro-2H-pyrrolo[3′,2′:5,6]pyrido[2,3-b][1,4]oxazepin-1(7H)-yl)benzamide], the Ki in test [1] worked out at 0.267 nM; in test [2] it was 20.6 nM.

`CC1(C)CC(c2ccc(Cl)cc2)=C2CN3CCN(c4ccc(C(=O)NS(=O)(=O)c5cnc(OC[C@]6(F)CC[C@@H](N7CCOCC7)CC6)c(Cl)c5)c(N5CCCOc6nc7[nH]ccc7cc65)c4)C[C@H]3COCCCO[C@@H]2C1` [Example 10, N-((5-chloro-6-(((1s,4s)-1-fluoro-4-morpholinocyclohexyl)methoxy)pyridin-3-yl)sulfonyl)-4-((4aS,10aR)-14-(4-chlorophenyl)-12,12-dimethyl-1,2,4a,5,8,9,10a,11,13,15-decahydro-7H,12H-benzo[f]pyrazino[2,1-c][1,8]dioxa[4]azacycloundecin-3(4H)-yl)-2-(3,4-dihydro-2H-pyrrolo[3′,2′:5,6]pyrido[2,3-b][1,4]oxazepin-1(7H)-yl)benzamide]: the Ki in test [1] worked out at 0.66 nM; in test [2], 5.91 nM.

With `CO[C@H]1CC[C@H](CNc2ccc(S(=O)(=O)NC(=O)c3ccc(N4CCN5CC6=C(c7ccc(Cl)cc7)CC(C)(C)C[C@H]6OCCCOC[C@@H]5C4)cc3N3CCCOc4nc5[nH]ccc5cc43)cc2[N+](=O)[O-])CC1` [Example 5, 4-((4aS,10aR)-14-(4-chlorophenyl)-12,12-dimethyl-1,2,4a,5,8,9,10a,11,13,15-decahydro-7H,12H-benzo[f]pyrazino[2,1-c][1,8]dioxa[4]azacycloundecin-3(4H)-yl)-2-(3,4-dihydro-2H-pyrrolo[3′,2′:5,6]pyrido[2,3-b][1,4]oxazepin-1(7H)-yl)-N-((4-((((1r,4r)-4-methoxycyclohexyl)methyl)amino)-3-nitrophenyl)sulfonyl)benzamide], the figures for the Ki in test [1] and in test [2] were 0.149 nM and 20 nM, respectively.

Consider `CC1(C)CC(c2ccc(Cl)cc2)=C2CN3CCN(c4ccc(C(=O)NS(=O)(=O)c5ccc(NC[C@@H]6CC[C@@H](O)CO6)c([N+](=O)[O-])c5)c(N5CCCOc6nc7[nH]ccc7cc65)c4)C[C@H]3COCCCO[C@@H]2C1` [Example 27, 4-((4aS,10aR)-14-(4-chlorophenyl)-12,12-dimethyl-1,2,4a,5,8,9,10a,11,13,15-decahydro-7H,12H-benzo[f]pyrazino[2,1-c][1,8]dioxa[4]azacycloundecin-3(4H)-yl)-2-(3,4-dihydro-2H-pyrrolo[3′,2′:5,6]pyrido[2,3-b][1,4]oxazepin-1(7H)-yl)-N-((4-((((2S,5R)-5-hydroxytetrahydro-2H-pyran-2-yl)methyl)amino)-3-nitrophenyl)sulfonyl)benzamide], for which the Ki in test [1] turned out to be 1.72 nM; in test [2], 7.41 nM.

With `CC1(C)CC(c2ccc(Cl)cc2)=C2CN3CCN(c4ccc(C(=O)NS(=O)(=O)c5ccc(NC[C@H]6C[C@](O)(CF)C6)c([N+](=O)[O-])c5)c(N5CCCOc6nc7[nH]ccc7cc65)c4)C[C@H]3COCCCO[C@@H]2C1` [Example 16, 4-((4aS,10aR)-14-(4-chlorophenyl)-12,12-dimethyl-1,2,4a,5,8,9,10a,11,13,15-decahydro-7H,12H-benzo[f]pyrazino[2,1-c][1,8]dioxa[4]azacycloundecin-3(4H)-yl)-2-(3,4-dihydro-2H-pyrrolo[3′,2′:5,6]pyrido[2,3-b][1,4]oxazepin-1(7H)-yl)-N-((4-((((1s,3s)-3-(fluoromethyl)-3-hydroxycyclobutyl)methyl)amino)-3-nitrophenyl)sulfonyl)benzamide], the figures for the Ki in test [1] and in test [2] were 0.297 nM and 15 nM, respectively.

As to `CO[C@H]1CC[C@H](CNc2ccc(S(=O)(=O)NC(=O)c3ccc(N4CCN5CC6=C(c7ccc(Cl)cc7)CC(C)(C)C[C@H]6OCCCOC[C@@H]5C4)cc3N3CCCOc4nc5[nH]ccc5cc43)cc2[N+](=O)[O-])OC1` [Example 13, 4-((4aS,10aR)-14-(4-chlorophenyl)-12,12-dimethyl-1,2,4a,5,8,9,10a,11,13,15-decahydro-7H,12H-benzo[f]pyrazino[2,1-c][1,8]dioxa[4]azacycloundecin-3(4H)-yl)-2-(3,4-dihydro-2H-pyrrolo[3′,2′:5,6]pyrido[2,3-b][1,4]oxazepin-1(7H)-yl)-N-((4-((((2R,5S)-5-methoxytetrahydro-2H-pyran-2-yl)methyl)amino)-3-nitrophenyl)sulfonyl)benzamide], the Ki stood at 0.35 nM in test [1] and 6.8 nM in test [2].

In the case of `CC1(C)CC(c2ccc(Cl)cc2)=C2CN3CCN(c4ccc(C(=O)NS(=O)(=O)c5cnc(OC[C@]6(F)CC[C@H](N7CCOCC7)CC6)c(Cl)c5)c(N5CCCOc6nc7[nH]ccc7cc65)c4)C[C@H]3COCCCO[C@@H]2C1` [Example 11, N-((5-chloro-6-(((1r,4r)-1-fluoro-4-morpholinocyclohexyl)methoxy)pyridin-3-yl)sulfonyl)-4-((4aS,10aR)-14-(4-chlorophenyl)-12,12-dimethyl-1,2,4a,5,8,9,10a,11,13,15-decahydro-7H,12H-benzo[f]pyrazino[2,1-c][1,8]dioxa[4]azacycloundecin-3(4H)-yl)-2-(3,4-dihydro-2H-pyrrolo[3′,2′:5,6]pyrido[2,3-b][1,4]oxazepin-1(7H)-yl)benzamide], the Ki in test [1] was 0.936 nM; in test [2], 17.3 nM.

Turning to `COC1CO[C@H](CNc2ccc(S(=O)(=O)NC(=O)c3ccc(N4CCN5CC6=C(c7ccc(Cl)cc7)CC(C)(C)C[C@H]6OCCCOC[C@@H]5C4)cc3N3CCCOc4nc5[nH]ccc5cc43)cc2[N+](=O)[O-])C1` (stereo partly drawn) [Example 29, 4-((4aS,10aR)-14-(4-chlorophenyl)-12,12-dimethyl-1,2,4a,5,8,9,10a,11,13,15-decahydro-7H,12H-benzo[f]pyrazino[2,1-c][1,8]dioxa[4]azacycloundecin-3(4H)-yl)-2-(3,4-dihydro-2H-pyrrolo[3′,2′:5,6]pyrido[2,3-b][1,4]oxazepin-1(7H)-yl)-N-((4-((((2S)-4-methoxytetrahydrofuran-2-yl)methyl)amino)-3-nitrophenyl)sulfonyl)benzamide], the Ki in test [1] came to 2.59 nM; in test [2], 22.5 nM.

Consider `CC1(C)CC(c2ccc(Cl)cc2)=C2CN3CCN(c4ccc(C(=O)NS(=O)(=O)c5ccc(NC[C@H]6CC[C@](C)(O)CC6)c([N+](=O)[O-])c5)c(N5CCCOc6nc7[nH]ccc7cc65)c4)C[C@H]3COCCCO[C@@H]2C1` [Example 32, 4-((4aS,10aR)-14-(4-chlorophenyl)-12,12-dimethyl-1,2,4a,5,8,9,10a,11,13,15-decahydro-7H,12H-benzo[f]pyrazino[2,1-c][1,8]dioxa[4]azacycloundecin-3(4H)-yl)-2-(3,4-dihydro-2H-pyrrolo[3′,2′:5,6]pyrido[2,3-b][1,4]oxazepin-1(7H)-yl)-N-((4-((((1r,4r)-4-hydroxy-4-methylcyclohexyl)methyl)amino)-3-nitrophenyl)sulfonyl)benzamide], for which the values for the Ki in test [1] and in test [2] were 0.397 nM and 15.8 nM, respectively.

In the case of `COCCN1CCC(F)(COc2ncc(S(=O)(=O)NC(=O)c3ccc(N4CCN5CC6=C(c7ccc(Cl)cc7)CC(C)(C)C[C@H]6OCCCOC[C@@H]5C4)cc3N3CCCOc4nc5[nH]ccc5cc43)cc2Cl)CC1` [Example 22, N-((5-chloro-6-((4-fluoro-1-(2-methoxyethyl)piperidin-4-yl)methoxy)pyridin-3-yl)sulfonyl)-4-((4aS,10aR)-14-(4-chlorophenyl)-12,12-dimethyl-1,2,4a,5,8,9,10a,11,13,15-decahydro-7H,12H-benzo[f]pyrazino[2,1-c][1,8]dioxa[4]azacycloundecin-3(4H)-yl)-2-(3,4-dihydro-2H-pyrrolo[3′,2′:5,6]pyrido[2,3-b][1,4]oxazepin-1(7H)-yl)benzamide], the Ki was found to be 0.339 nM in test [1] and 14.7 nM in test [2].
